# Organism: Rattus norvegicus
# Test: Open TG-GATES - Regimen: Single
# Type: toxicity, organism-based, Sprague-Dawley
# Design: regimen Single, gender Male, age 6 weeks
# Settings: in vivo, po, 0 mg/kg, route gavage, dose level Control; for APTT / Bas / Eos / Fbg / Hb / Ht / Lym / MCH / MCHC / MCV / Mono / Neu / PT / Plat / RBC / Ret / WBC: tissue Blood; for KIDNEY_L / KIDNEY_R / KIDNEY_TOTAL: tissue Kidney; for LIVER: tissue Liver; for A/G / ALP / ALT / AST / BUN / CRE / Ca / Cl / DBIL / GLC / IP / K / LDH / Na / PL / RALB / TBIL / TC / TG / TP / gamma-GTP: tissue Plasma
compound,measurement,setting,value
CCc1oc2ccccc2c1C(=O)c1cc(I)c(O)c(I)c1 [BENZIODARONE],TERMINAL_BW,3 h,211.5 g
same,APTT,3 h,16.8 s
same,Bas,3 h,0%
same,Eos,3 h,0.4%
same,Fbg,3 h,205.2 mg/dL
same,Hb,3 h,13.7 g/dL
same,Ht,3 h,40.7%
same,Lym,3 h,81.8%
same,MCH,3 h,22 pg
same,MCHC,3 h,33.6%
same,MCV,3 h,65.5 fL
same,Mono,3 h,8%
same,Neu,3 h,9.6%
same,PT,3 h,11.9 s
same,Plat,3 h,114.1 x10_4/uL
same,RBC,3 h,621 x10_4/ul
same,Ret,3 h,9.1%
same,WBC,3 h,100.3 x10_2/uL
same,KIDNEY_L,3 h,1 g
same,KIDNEY_R,3 h,1 g
same,KIDNEY_TOTAL,3 h,2 g
same,LIVER,3 h,9.9 g
same,A/G,3 h,2.2
same,ALP,3 h,888.8 IU/L
same,ALT,3 h,33.4 IU/L
same,AST,3 h,64 IU/L
same,BUN,3 h,12.8 mg/dL
same,CRE,3 h,0.5 mg/dL
same,Ca,3 h,10.8 mg/dL
same,Cl,3 h,104.2 meq/L
same,DBIL,3 h,0.006 mg/dL
same,GLC,3 h,191.8 mg/dL
same,IP,3 h,9.6 mg/dL
same,K,3 h,4.6 meq/L
same,LDH,3 h,93.2 IU/L
same,Na,3 h,141.4 meq/L
same,PL,3 h,146 mg/dL
same,RALB,3 h,3.8 g/dL
same,TBIL,3 h,0.3 mg/dL
same,TC,3 h,79.4 mg/dL
same,TG,3 h,59.8 mg/dL
same,TP,3 h,5.5 g/dL
same,gamma-GTP,3 h,1.4 IU/L
same,TERMINAL_BW,6 h,210.7 g
same,APTT,6 h,17.7 s
same,Bas,6 h,0%
same,Eos,6 h,0.8%
same,Fbg,6 h,204.4 mg/dL
same,Hb,6 h,13.8 g/dL
same,Ht,6 h,41.4%
same,Lym,6 h,84%
same,MCH,6 h,21.7 pg
same,MCHC,6 h,33.3%
same,MCV,6 h,65.1 fL
same,Mono,6 h,5%
same,Neu,6 h,10.6%
same,PT,6 h,12 s
same,Plat,6 h,116.7 x10_4/uL
same,RBC,6 h,636.4 x10_4/ul
same,Ret,6 h,11.3%
same,WBC,6 h,115.5 x10_2/uL
same,KIDNEY_L,6 h,1 g
same,KIDNEY_R,6 h,1 g
same,KIDNEY_TOTAL,6 h,1.9 g
same,LIVER,6 h,9.5 g
same,A/G,6 h,2.2
same,ALP,6 h,852.8 IU/L
same,ALT,6 h,33 IU/L
same,AST,6 h,62 IU/L
same,BUN,6 h,9.8 mg/dL
same,CRE,6 h,0.5 mg/dL
same,Ca,6 h,10.6 mg/dL
same,Cl,6 h,104.6 meq/L
same,DBIL,6 h,0.046 mg/dL
same,GLC,6 h,180.2 mg/dL
same,IP,6 h,9.3 mg/dL
same,K,6 h,4.6 meq/L
same,LDH,6 h,81.2 IU/L
same,Na,6 h,141.4 meq/L
same,PL,6 h,126.6 mg/dL
same,RALB,6 h,3.7 g/dL
same,TBIL,6 h,0.4 mg/dL
same,TC,6 h,71.4 mg/dL
same,TG,6 h,57.6 mg/dL
same,TP,6 h,5.4 g/dL
same,gamma-GTP,6 h,1.4 IU/L
same,TERMINAL_BW,9 h,208.6 g
same,APTT,9 h,18 s
same,Bas,9 h,0%
same,Eos,9 h,1%
same,Fbg,9 h,199 mg/dL
same,Hb,9 h,13.6 g/dL
same,Ht,9 h,40%
same,Lym,9 h,77.6%
same,MCH,9 h,22.4 pg
same,MCHC,9 h,34%
same,MCV,9 h,66 fL
same,Mono,9 h,7.2%
same,Neu,9 h,14.4%
same,PT,9 h,12.3 s
same,Plat,9 h,113.9 x10_4/uL
same,RBC,9 h,606 x10_4/ul
same,Ret,9 h,8.6%
same,WBC,9 h,92 x10_2/uL
same,KIDNEY_L,9 h,1 g
same,KIDNEY_R,9 h,1 g
same,KIDNEY_TOTAL,9 h,1.9 g
same,LIVER,9 h,8.7 g
same,A/G,9 h,2.3
same,ALP,9 h,824.8 IU/L
same,ALT,9 h,30.8 IU/L
same,AST,9 h,62 IU/L
same,BUN,9 h,9.8 mg/dL
same,CRE,9 h,0.5 mg/dL
same,Ca,9 h,10.3 mg/dL
same,Cl,9 h,105.6 meq/L
same,DBIL,9 h,0.062 mg/dL
same,GLC,9 h,191.8 mg/dL
same,IP,9 h,10.9 mg/dL
same,K,9 h,4.5 meq/L
same,LDH,9 h,67 IU/L
same,Na,9 h,142.4 meq/L
same,PL,9 h,128 mg/dL
same,RALB,9 h,3.7 g/dL
same,TBIL,9 h,0.3 mg/dL
same,TC,9 h,71.2 mg/dL
same,TG,9 h,32.8 mg/dL
same,TP,9 h,5.3 g/dL
same,gamma-GTP,9 h,0.8 IU/L
same,TERMINAL_BW,24 h,224.5 g
same,APTT,24 h,16.7 s
same,Bas,24 h,0%
same,Eos,24 h,1.2%
same,Fbg,24 h,203.6 mg/dL
same,Hb,24 h,13.3 g/dL
same,Ht,24 h,39.4%
same,Lym,24 h,75.8%
same,MCH,24 h,22 pg
same,MCHC,24 h,33.8%
same,MCV,24 h,65.2 fL
same,Mono,24 h,7.2%
same,Neu,24 h,16.2%
same,PT,24 h,11.8 s
same,Plat,24 h,117.5 x10_4/uL
same,RBC,24 h,604.6 x10_4/ul
same,Ret,24 h,8.8%
same,WBC,24 h,109.7 x10_2/uL
same,KIDNEY_L,24 h,1 g
same,KIDNEY_R,24 h,1 g
same,KIDNEY_TOTAL,24 h,2 g
same,LIVER,24 h,10.8 g
same,A/G,24 h,2.1
same,ALP,24 h,1056.6 IU/L
same,ALT,24 h,37.8 IU/L
same,AST,24 h,66 IU/L
same,BUN,24 h,17.6 mg/dL
same,CRE,24 h,0.5 mg/dL
same,Ca,24 h,10.7 mg/dL
same,Cl,24 h,105.6 meq/L
same,DBIL,24 h,0.008 mg/dL
same,GLC,24 h,200.6 mg/dL
same,IP,24 h,7.6 mg/dL
same,K,24 h,4.8 meq/L
same,LDH,24 h,76.2 IU/L
same,Na,24 h,141.8 meq/L
same,PL,24 h,149.8 mg/dL
same,RALB,24 h,3.8 g/dL
same,TBIL,24 h,0.3 mg/dL
same,TC,24 h,76 mg/dL
same,TG,24 h,109.6 mg/dL
same,TP,24 h,5.6 g/dL
same,gamma-GTP,24 h,1 IU/L
